Among the test systems are LOX IMVI melanoma; HS 578T breast; OVCAR-5 ovarian; K-562 leukemia; SF-539 CNS; NCI-H23 lung; SK-MEL-5 melanoma; BT-549 breast; NCI-H522 lung; U251 CNS.
What all share (test): DTP human tumour cell line panel, 48 h

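1) Cells in 96-well plates. 2) Compound, 48 h, 5 concentrations. 3) Linear interpolation between surrounding doses. 4) Unreached endpoint = highest concentration. At the GI50, growth is halved. TGI is the concentration that stops growth completely.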 Some results are limits rather than exact numbers.

On to `O=C(Nc1cc(Cl)cc(Cl)c1)c1ccc(NC2=C(Cl)C(=O)N(Cc3ccccc3)C2=O)cc1`, for which the GI50 was 2210 nM with LOX IMVI melanoma; 1.99 µM in the assay with HS 578T breast; 4.68 µM with OVCAR-5 ovarian; 2310 nM in the assay on K-562 leukemia; 3.5 µM in the assay on SF-539 CNS; 4.16 µM with NCI-H23 lung. Moreover, the GI50 was 1570 nM in the assay with SK-MEL-5 melanoma, 4.59 µM in the assay with BT-549 breast, 7.78 µM in the assay with NCI-H522 lung and 3.04 µM in the assay on U251 CNS. The TGI with LOX IMVI melanoma is 5.86 µM; in the assay with HS 578T breast it was 5.49 µM; in the assay on OVCAR-5 ovarian it was 17.8 µM; in the assay on K-562 leukemia, 6.93 µM; with SF-539 CNS, 13.7 µM; with NCI-H23 lung, 16.3 µM. Moreover, the TGI with SK-MEL-5 melanoma came out at 3.19 µM; with BT-549 breast it was 19.3 µM; in the assay with NCI-H522 lung it was 25.7 µM; in the assay on U251 CNS, 12.8 µM.
In the case of `COc1cccc(-c2cc(NCc3ccc4c(c3)OCO4)nc(N)n2)c1`, the GI50 in the assay on LOX IMVI melanoma is 77.3 nM; in the assay with HS 578T breast, 0.0505 µM; in the assay on OVCAR-5 ovarian, 0.488 µM; with K-562 leukemia, 41 nM; with SF-539 CNS, 0.0909 µM; with NCI-H23 lung, 0.135 µM. For the same compound, the GI50 was 43.2 nM with SK-MEL-5 melanoma, 0.149 µM in the assay on BT-549 breast, 0.0607 µM in the assay on NCI-H522 lung and 0.0552 µM in the assay on U251 CNS. Besides, the TGI was 19.4 µM in the assay on LOX IMVI melanoma; 27.6 µM in the assay with HS 578T breast; 28.8 µM in the assay on OVCAR-5 ovarian; over 34 µM in the assay on K-562 leukemia; 3.22 µM in the assay with SF-539 CNS; 16.5 µM in the assay with NCI-H23 lung. Also, the TGI in the assay on SK-MEL-5 melanoma worked out at 3.6 µM; in the assay on BT-549 breast, 5.15 µM; in the assay on NCI-H522 lung, 1.27 µM; in the assay with U251 CNS, 11.2 µM.
Take `Cn1cc(-c2nc(-c3cn(C)c4ncccc34)cs2)c2cc(F)ccc21`: the GI50 in the assay with LOX IMVI melanoma is 1150 nM; with HS 578T breast, 5.1 µM; with OVCAR-5 ovarian, 3.54 µM; in the assay with K-562 leukemia, 358 nM; in the assay on SF-539 CNS, 1.8 µM; with NCI-H23 lung, 2.76 µM. Also, the GI50 with SK-MEL-5 melanoma is 847 nM; with BT-549 breast, 2.2 µM; in the assay on NCI-H522 lung, 0.367 µM; with U251 CNS it was 1.55 µM. Further, the TGI in the assay on LOX IMVI melanoma was 5.69 µM; in the assay with HS 578T breast, over 100 µM; in the assay on OVCAR-5 ovarian, over 100 µM; with K-562 leukemia it was over 100 µM; in the assay with SF-539 CNS, 5.28 µM; in the assay with NCI-H23 lung, over 100 µM. Further, the TGI is 3.37 µM in the assay with SK-MEL-5 melanoma, 37.6 µM in the assay with BT-549 breast, 7.57 µM in the assay with NCI-H522 lung and over 100 µM in the assay with U251 CNS.
On to `O=C(CN/C=C\C(=O)c1cc(Cl)ccc1Cl)c1ccccc1`, for which the GI50 in the assay on LOX IMVI melanoma was 19800 nM; in the assay on HS 578T breast it was 25.7 µM; in the assay with OVCAR-5 ovarian it was 30.6 µM; with K-562 leukemia, 61200 nM; in the assay with SF-539 CNS it was 20.4 µM; with NCI-H23 lung, 19.1 µM. Also, the GI50 is 18100 nM with SK-MEL-5 melanoma, 27.4 µM in the assay on BT-549 breast, 17.4 µM in the assay on NCI-H522 lung and 33.1 µM with U251 CNS. Also, the TGI in the assay on LOX IMVI melanoma was 35.1 µM; with HS 578T breast, 61.3 µM; in the assay on OVCAR-5 ovarian, over 100 µM; in the assay on K-562 leukemia, over 100 µM; in the assay with SF-539 CNS it was 38.8 µM; in the assay with NCI-H23 lung, 44.2 µM. Besides, the TGI in the assay on SK-MEL-5 melanoma amounted to 33.7 µM; in the assay on BT-549 breast it was 74.7 µM; in the assay on NCI-H522 lung, 34.8 µM; with U251 CNS it was 99.6 µM.
In the case of `COc1cc2c(cc1C)NC(=O)/C2=C/c1c(C)nc2sc(C)cn12`, the GI50 with LOX IMVI melanoma is over 100000 nM; in the assay on HS 578T breast, 49.8 µM; in the assay with OVCAR-5 ovarian, over 100 µM; in the assay on K-562 leukemia, 35300 nM; with SF-539 CNS, over 100 µM; with NCI-H23 lung, 61.7 µM. In addition, the GI50 in the assay on SK-MEL-5 melanoma is 24400 nM; in the assay with BT-549 breast, 40.4 µM; in the assay on NCI-H522 lung, 52.5 µM; with U251 CNS, over 100 µM. The TGI in the assay on LOX IMVI melanoma, in the assay on HS 578T breast, in the assay with OVCAR-5 ovarian, with K-562 leukemia, in the assay with SF-539 CNS and with NCI-H23 lung was over 100 µM throughout. In addition, the TGI in the assay on SK-MEL-5 melanoma was 64.7 µM; in the assay with BT-549 breast, over 100 µM; with NCI-H522 lung, over 100 µM; in the assay on U251 CNS, over 100 µM.
`COc1ccc2c(c1)N(CCO)C1=C(C(=O)OC1)C2c1cccc(Br)c1` (stereo not given): the GI50 is 81.4 nM with LOX IMVI melanoma; 0.209 µM with HS 578T breast; 0.466 µM in the assay on OVCAR-5 ovarian; 53.2 nM in the assay with K-562 leukemia; 0.0498 µM in the assay with SF-539 CNS; 0.156 µM in the assay on NCI-H23 lung. For the same compound, the GI50 in the assay with SK-MEL-5 melanoma is 40.7 nM; in the assay on BT-549 breast, 0.305 µM; with NCI-H522 lung, 0.0226 µM; in the assay on U251 CNS it was 0.0534 µM. In addition, the TGI is 18.8 µM in the assay with LOX IMVI melanoma; over 100 µM in the assay with HS 578T breast; over 100 µM with OVCAR-5 ovarian; over 67.6 µM in the assay with K-562 leukemia; 0.859 µM with SF-539 CNS; over 100 µM with NCI-H23 lung. The TGI amounted to 0.585 µM in the assay on SK-MEL-5 melanoma, 34 µM in the assay with BT-549 breast, 0.0693 µM in the assay with NCI-H522 lung and 15.9 µM in the assay on U251 CNS.
Take `Cc1cc(NC(=O)C(=O)Cc2nc3ccccc3s2)ccc1Cl`: the TGI in the assay on LOX IMVI melanoma, with HS 578T breast, with OVCAR-5 ovarian, in the assay on K-562 leukemia, with SF-539 CNS and in the assay on NCI-H23 lung was over 100 µM each time. The TGI in the assay on SK-MEL-5 melanoma, in the assay on BT-549 breast, in the assay with NCI-H522 lung and in the assay on U251 CNS was over 100 µM each time.
For `OCCCNC(=S)Nc1ccc(-c2nc3ccccc3s2)cc1`, the GI50 in the assay with LOX IMVI melanoma was 17900 nM; with HS 578T breast, 33 µM; in the assay on OVCAR-5 ovarian it was 20.6 µM; in the assay on K-562 leukemia it was 29700 nM; in the assay with SF-539 CNS it was 29.8 µM; in the assay with NCI-H23 lung, 24.3 µM. Besides, the GI50 in the assay on SK-MEL-5 melanoma is 20900 nM; in the assay with BT-549 breast, 25 µM; in the assay with NCI-H522 lung, 12.6 µM; with U251 CNS, 29.8 µM. Further, the TGI in the assay with LOX IMVI melanoma was 38.2 µM; in the assay on HS 578T breast it was over 100 µM; in the assay with OVCAR-5 ovarian, 58.3 µM; in the assay with K-562 leukemia it was over 100 µM; with SF-539 CNS, 95.4 µM; in the assay with NCI-H23 lung, 60.8 µM. The TGI in the assay on SK-MEL-5 melanoma is 47.1 µM; in the assay on BT-549 breast, 82.9 µM; with NCI-H522 lung it was 38.7 µM; with U251 CNS, over 100 µM.

What is called GI50 is the concentration at which growth is held to half of that of the control. As usually defined, the TGI is the concentration giving total growth inhibition. Read a high TGI as lower sensitivity of the cells.

Source of the values: PubChem BioAssay (NCI).
